Results reported in ChEMBL document CHEMBL1201862, “PubChem BioAssay data set” (2004).
Active and inactive are the calls of the source.

Experiments:
[1] = viability loss in human Jurkat cells – cell-based, luminescence, cytotoxicity control for P. falciparum gametocyte viability project, dose response (AID 1117277); format: functional;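 also: potency reflects loss of cellular ATP meaning fewer viable cells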
[2] = viability inhibitors of stage V gametocytes – luminescence, dose response (AID 1117278); format: functional, cell-based;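 also: gametocytes exposed to compound for 24 hours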
Ion channel NompC = Ion channel NompC (Danio rerio, UniProt Q7T1G6); experiment: Fluorescence counterscreen assay for TRPML3 agonists: dose response cell-based high-throughput screening assay to identify agonists of the transient receptor potential channel N1 (TRPN1). [Related pubchem assays: 1526, 1424, 1448 ]; format: functional
Sequence of Ion channel NompC (Q7T1G6 whole entry): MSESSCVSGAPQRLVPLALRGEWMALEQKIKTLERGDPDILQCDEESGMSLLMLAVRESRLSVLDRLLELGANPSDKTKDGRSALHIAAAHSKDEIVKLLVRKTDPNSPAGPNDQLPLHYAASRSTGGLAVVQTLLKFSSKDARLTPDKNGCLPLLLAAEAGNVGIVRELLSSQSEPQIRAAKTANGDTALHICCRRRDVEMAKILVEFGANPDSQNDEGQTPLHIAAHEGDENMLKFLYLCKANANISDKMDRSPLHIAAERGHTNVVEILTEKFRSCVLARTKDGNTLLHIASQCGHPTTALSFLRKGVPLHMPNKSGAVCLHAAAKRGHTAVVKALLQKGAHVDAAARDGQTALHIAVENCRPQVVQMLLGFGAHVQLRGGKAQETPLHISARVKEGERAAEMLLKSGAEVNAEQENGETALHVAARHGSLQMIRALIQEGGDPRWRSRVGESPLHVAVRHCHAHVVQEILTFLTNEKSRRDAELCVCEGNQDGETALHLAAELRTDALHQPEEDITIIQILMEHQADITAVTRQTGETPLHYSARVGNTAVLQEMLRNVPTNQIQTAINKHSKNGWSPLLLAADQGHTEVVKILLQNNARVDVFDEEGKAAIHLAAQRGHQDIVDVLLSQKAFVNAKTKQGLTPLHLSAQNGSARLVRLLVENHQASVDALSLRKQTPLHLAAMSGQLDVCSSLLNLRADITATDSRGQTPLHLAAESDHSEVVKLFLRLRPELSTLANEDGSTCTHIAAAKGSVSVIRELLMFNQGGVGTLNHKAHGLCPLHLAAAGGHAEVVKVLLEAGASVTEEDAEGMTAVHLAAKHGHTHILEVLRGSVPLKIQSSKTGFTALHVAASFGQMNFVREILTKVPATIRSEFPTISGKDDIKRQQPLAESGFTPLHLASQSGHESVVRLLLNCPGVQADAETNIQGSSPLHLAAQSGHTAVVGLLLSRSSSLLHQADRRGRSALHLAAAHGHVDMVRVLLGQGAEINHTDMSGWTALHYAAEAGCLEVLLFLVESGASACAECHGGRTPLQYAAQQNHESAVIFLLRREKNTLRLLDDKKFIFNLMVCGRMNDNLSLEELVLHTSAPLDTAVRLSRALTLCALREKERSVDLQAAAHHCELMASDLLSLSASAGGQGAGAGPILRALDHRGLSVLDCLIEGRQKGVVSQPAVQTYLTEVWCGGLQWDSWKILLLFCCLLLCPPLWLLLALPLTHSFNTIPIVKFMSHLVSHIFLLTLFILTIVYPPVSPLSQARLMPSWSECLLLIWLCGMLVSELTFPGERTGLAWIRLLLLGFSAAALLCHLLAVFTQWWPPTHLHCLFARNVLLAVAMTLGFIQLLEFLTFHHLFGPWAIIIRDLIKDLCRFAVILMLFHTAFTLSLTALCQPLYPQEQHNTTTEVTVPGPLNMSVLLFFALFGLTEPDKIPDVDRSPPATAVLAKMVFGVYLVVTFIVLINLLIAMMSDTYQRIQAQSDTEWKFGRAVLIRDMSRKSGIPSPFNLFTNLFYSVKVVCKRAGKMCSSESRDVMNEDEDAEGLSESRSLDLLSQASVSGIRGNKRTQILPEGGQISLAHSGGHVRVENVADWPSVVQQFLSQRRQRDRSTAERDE

Mucolipin-3 = target: T1, Mucolipin-3 (Homo sapiens, UniProt Q8TDD5); experiment: Dose response cell-based high-throughput screening assay for agonists of the transient receptor potential channel ML3 (TRPML3). [Related pubchem assays: 1526, 1424, 1448 ]; format: functional
T1 sequence (Q8TDD5 whole entry): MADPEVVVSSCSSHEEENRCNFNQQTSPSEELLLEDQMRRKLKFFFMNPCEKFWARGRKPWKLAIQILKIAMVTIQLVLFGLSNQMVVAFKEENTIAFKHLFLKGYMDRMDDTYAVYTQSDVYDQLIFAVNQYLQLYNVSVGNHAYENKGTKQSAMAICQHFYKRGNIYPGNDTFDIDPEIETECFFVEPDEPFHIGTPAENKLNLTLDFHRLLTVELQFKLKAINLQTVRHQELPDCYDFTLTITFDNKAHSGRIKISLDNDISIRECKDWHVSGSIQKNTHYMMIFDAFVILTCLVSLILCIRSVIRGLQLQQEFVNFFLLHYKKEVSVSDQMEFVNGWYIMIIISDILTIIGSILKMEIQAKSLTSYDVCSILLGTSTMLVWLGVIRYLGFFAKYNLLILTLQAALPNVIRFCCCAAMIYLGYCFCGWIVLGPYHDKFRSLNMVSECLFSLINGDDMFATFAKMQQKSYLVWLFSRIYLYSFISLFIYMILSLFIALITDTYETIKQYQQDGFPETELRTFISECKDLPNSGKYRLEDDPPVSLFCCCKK

Estrogen receptor = target: T2, Estrogen receptor (Homo sapiens, UniProt P03372);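 also: potency for inhibiting coactivator peptide recruitment to the receptor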
T2 sequence (P03372 whole entry): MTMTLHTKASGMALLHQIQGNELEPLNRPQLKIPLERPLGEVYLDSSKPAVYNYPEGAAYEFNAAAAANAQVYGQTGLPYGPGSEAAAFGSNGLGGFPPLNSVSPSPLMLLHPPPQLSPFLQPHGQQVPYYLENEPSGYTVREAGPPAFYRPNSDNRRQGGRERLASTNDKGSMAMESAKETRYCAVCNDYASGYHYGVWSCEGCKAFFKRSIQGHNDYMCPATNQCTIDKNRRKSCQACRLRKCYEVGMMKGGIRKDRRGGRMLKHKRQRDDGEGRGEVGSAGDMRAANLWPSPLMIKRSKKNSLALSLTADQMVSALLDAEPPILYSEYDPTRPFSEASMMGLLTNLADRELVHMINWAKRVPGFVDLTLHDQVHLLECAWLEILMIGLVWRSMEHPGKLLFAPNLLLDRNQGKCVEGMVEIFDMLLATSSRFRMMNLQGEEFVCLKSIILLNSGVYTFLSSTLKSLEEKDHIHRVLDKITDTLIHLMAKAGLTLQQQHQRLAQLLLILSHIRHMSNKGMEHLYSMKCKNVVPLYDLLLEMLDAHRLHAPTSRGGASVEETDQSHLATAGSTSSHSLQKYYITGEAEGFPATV

[3] = viability of PTEN-deleted HCT116 cells – cell-based, HCT116 PTEN knockout, dose response (AID 1047); format: functional;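 also: HCT116 colon tumor cells with PTEN knocked out; cells exposed to compound for 60 hours before readout; potency for loss of cell viability measured by luminescence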
[4] = viability of HCT116 lacking mutant beta-catenin – cell-based, human colon tumor, dose response (AID 1045); format: functional;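 also: HCT116 colon tumor cells with beta catenin knocked out; cells exposed to compound for 60 hours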
Leucine aminopeptidase = target: T3, Leucine aminopeptidase (Plasmodium falciparum 3D7, UniProt Q8IL11); experiment: P. falciparum M17LAP inhibitors, primary screen, biochemical, fluorogenic H-Leu-NHMec substrate, 1536-well (AID 1619); format: functional
T3 sequence (Q8IL11 whole entry): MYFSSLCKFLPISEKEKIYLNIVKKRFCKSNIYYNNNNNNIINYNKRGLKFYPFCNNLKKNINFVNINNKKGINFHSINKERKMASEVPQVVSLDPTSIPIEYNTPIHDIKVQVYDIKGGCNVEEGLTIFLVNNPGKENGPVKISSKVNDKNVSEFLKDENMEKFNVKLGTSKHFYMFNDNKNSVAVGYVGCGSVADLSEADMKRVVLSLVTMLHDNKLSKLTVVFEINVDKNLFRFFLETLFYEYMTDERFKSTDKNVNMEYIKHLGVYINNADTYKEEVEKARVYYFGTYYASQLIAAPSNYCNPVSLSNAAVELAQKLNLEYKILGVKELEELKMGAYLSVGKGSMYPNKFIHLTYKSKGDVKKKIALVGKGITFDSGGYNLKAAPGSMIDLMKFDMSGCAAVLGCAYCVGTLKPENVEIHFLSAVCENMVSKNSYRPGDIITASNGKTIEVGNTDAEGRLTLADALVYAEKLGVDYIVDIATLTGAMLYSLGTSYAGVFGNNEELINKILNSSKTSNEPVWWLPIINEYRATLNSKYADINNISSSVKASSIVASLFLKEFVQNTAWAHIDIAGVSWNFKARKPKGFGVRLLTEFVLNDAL

[5] = target: T4, Zinc finger protein mex-5 (Caenorhabditis elegans, UniProt Q9XUB2); experiment: potency of MEX-5 RNA-binding blockers – biochemical, C. elegans, fluorescence polarization, dose response (AID 1960)
T4 sequence (Q9XUB2 whole entry): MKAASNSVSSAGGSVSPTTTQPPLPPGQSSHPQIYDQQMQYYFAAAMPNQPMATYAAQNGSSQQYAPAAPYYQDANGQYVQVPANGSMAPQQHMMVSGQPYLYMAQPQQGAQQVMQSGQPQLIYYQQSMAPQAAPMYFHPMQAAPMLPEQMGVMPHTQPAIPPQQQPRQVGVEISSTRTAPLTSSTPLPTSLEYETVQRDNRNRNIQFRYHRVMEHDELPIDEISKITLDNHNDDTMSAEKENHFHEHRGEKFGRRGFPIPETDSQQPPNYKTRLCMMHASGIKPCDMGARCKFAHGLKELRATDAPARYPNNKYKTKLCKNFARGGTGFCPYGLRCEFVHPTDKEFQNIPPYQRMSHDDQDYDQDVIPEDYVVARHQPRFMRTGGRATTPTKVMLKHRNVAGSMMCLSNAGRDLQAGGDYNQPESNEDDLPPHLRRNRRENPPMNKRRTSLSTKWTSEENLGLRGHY

[6] = target: T5, RNA-binding protein pos-1 (Caenorhabditis elegans, UniProt G5EF15); experiment: disruptors of C. elegans POS-1 RNA interaction – biochemical, fluorescence polarization, dose response (AID 1964);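 also: purified POS-1 fused to maltose binding protein made in E. coli; potency of compounds blocking POS-1 binding to fluorescent RNA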
T5 sequence (G5EF15 whole entry): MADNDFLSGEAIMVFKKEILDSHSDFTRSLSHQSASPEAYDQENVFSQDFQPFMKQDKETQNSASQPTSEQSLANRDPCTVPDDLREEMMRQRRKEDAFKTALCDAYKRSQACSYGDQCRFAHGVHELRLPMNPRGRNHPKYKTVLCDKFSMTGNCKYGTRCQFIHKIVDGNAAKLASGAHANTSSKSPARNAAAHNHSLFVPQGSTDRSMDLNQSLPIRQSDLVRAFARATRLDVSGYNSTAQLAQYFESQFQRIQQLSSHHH

[7] = target: T6, Mannose-6-phosphate isomerase (Homo sapiens, UniProt P34949); experiment: MPI enzyme activity inhibition – biochemical, fluorescence intensity, coupled assay, primary screen (AID 1209)
T6 sequence (P34949 whole entry): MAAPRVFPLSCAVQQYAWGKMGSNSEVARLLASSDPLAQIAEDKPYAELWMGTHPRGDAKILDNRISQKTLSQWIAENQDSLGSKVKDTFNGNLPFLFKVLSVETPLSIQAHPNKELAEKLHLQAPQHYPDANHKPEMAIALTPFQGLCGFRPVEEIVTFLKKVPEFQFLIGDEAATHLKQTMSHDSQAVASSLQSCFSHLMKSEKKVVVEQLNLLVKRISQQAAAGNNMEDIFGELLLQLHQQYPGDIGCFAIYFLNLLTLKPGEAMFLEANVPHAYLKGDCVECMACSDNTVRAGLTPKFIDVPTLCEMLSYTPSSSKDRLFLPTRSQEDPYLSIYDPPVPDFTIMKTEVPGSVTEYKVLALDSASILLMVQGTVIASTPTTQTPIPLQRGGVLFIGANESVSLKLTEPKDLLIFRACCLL

[8] = target: T7, Calpain-2 catalytic subunit (Sus scrofa, UniProt P43367); experiment: m-calpain protease blockers, concentration series – biochemical, fluorogenic peptide substrate, dose response (AID 1420); format: functional
T7 sequence (P43367 whole entry): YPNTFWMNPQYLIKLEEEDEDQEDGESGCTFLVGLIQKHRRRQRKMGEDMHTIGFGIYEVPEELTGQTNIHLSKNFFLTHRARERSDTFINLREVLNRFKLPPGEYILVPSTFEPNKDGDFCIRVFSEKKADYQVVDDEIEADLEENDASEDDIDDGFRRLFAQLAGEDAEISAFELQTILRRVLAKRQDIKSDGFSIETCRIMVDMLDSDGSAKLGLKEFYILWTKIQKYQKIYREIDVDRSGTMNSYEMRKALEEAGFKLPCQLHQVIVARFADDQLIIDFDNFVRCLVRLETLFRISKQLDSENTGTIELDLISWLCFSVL

[9] = growth inhibition of yeast DHODH-expressing 3D7 parasites – SYBR Green, dry powder samples, dose response (AID 1159570); format: functional, cell-based;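 also: parasite growth measured after 72 hours of compound exposure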
[10] = growth inhibition of PfATP4-mutant resistant parasites – NITD609-resistant line, SYBR Green, dry powder, dose response (AID 1159571); format: functional, cell-based;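 also: parasites synchronized at ring stage by sorbitol before testing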
[11] = Dd2 malaria parasite growth inhibition potency – SYBR Green, dry powder samples, dose response (AID 1159566); format: functional, cell-based;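 also: potency for growth inhibition with lower SYBR green DNA signal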
[12] = toxicity to human HepG2 hepatoma cells – cell-based, plate reader, dry powder samples, cytotoxicity control, dose response (AID 1159569); format: functional;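 also: inhibitor potency with signal falling toward the positive control level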
[13] = P. falciparum Dd2 growth inhibitors, dose response, SYBR Green, cherry-picked samples (AID 1159567); format: functional, cell-based

Compound: O=C(CSc1nnc(-c2ccc(F)cc2)o1)NC1CCCCC1
- IC50 [1]: > 83.3 µM (inactive)
- IC50 [2]: > 109 µM (inactive)

Compound: O=C(c1ccccc1F)N(NC(=O)C(O)(c1ccccc1)c1ccccc1)c1ccccc1
- EC50 (Ion channel NompC): > 29.9 µM (not active)
- EC50 (Mucolipin-3): 10.4 µM (not active)

Compound: Cc1nn(Cc2ccccc2)c(C)c1NC(=O)CSc1nnc(-c2cc(Cl)ccc2O)n1C
- IC50 (Estrogen receptor): > 50 µM (not active)

Compound: O=C(N=Nc1c(O)[nH]c2ccc([N+](=O)[O-])cc12)c1ccccc1[N+](=O)[O-]
- IC50 (cells): 26.2 µM (active)

Compound: Cc1cccc(N2CCN(c3nc4ccccc4n4cnnc34)CC2)c1C
- IC50 (Estrogen receptor): 38.8 µM (not active)
- EC50 [3]: 23.4 µM (active)
- EC50 [4]: 25.4 µM (active)

Compound: C=CCCC(=O)Nc1ccc(Br)cn1
- IC50 [1]: > 83.3 µM (inactive)
- IC50 [2]: > 109 µM (inactive)

Compound: O=C1C2CC=C(Cl)CC2C(=O)N1CCCCCCN1C(=O)C2CC=C(Cl)CC2C1=O (configuration not stated)
- IC50 (Leucine aminopeptidase): 37.2 µM (active)
- IC50 (Estrogen receptor): 24.7 µM (active)
- EC50 [5]: 12.2 µM (active)
- EC50 [6]: 14.4 µM (active)

Compound: N#C/C(=C\c1cccnc1)C(=O)Nc1ccccc1
- IC50 [7]: > 50 µM (not active)

Compound: O=S1(=O)OCCC(c2ccccc2)N1Cc1ccccc1 (configuration not stated)
- IC50 [1]: > 83.3 µM (inactive)
- IC50 [2]: > 109 µM (inactive)

Compound: Cc1cc(C(C)(C)C)oc1C(=O)N(CC(=O)NC1CCCC1)Cc1ccccc1Cl
- EC50 (Ion channel NompC): > 29.9 µM (not active)
- EC50 (Mucolipin-3): > 29.9 µM (not active)
- IC50 [8]: 2.28 µM (not active)

Compound: CCc1ccc(N2C(=O)CC(Cn3nc(C)cc3C)C2=O)cc1 (configuration not stated)
- IC50 [1]: > 83.3 µM (inactive)
- IC50 [2]: > 109 µM (inactive)

Compound: CC(C)Oc1ccc(/C=N/NC(=O)C(CSCc2ccccc2)NC(=O)c2ccc([N+](=O)[O-])cc2)cc1 (configuration not stated)
- EC50 (Ion channel NompC): > 29.9 µM (not active)
- EC50 (Mucolipin-3): 0.342 µM (active)

Compound: CC1(C)CC(=O)C(/C=N/c2ccc3[nH]ncc3c2)=C(O)C1
- IC50 [7]: > 50 µM (not active)

Compound: Cc1ccc(/C=N/n2c(S)nnc2-c2ccncc2)cc1
- IC50 [7]: 18.3 µM (active)

Compound: CC(C)CC#Cc1ccc([C@H]2[C@@H](CO)N3C(=O)CN(C(=O)Cc4ccccc4)C[C@H]23)cc1
- AC50 [9]: 2.02 µM (active)
- AC50 [10]: 1.09 µM (active)
- AC50 [11]: 0.836 µM (active)
- AC50 [12]: 26.3 µM (active)
- AC50 [13]: 0.424 µM (active)

Compound: CO[C@@H]1CN(C)C(=O)c2cc(NC(=O)c3ccccc3F)ccc2OC[C@H](C)N(C(=O)c2ccccc2F)C[C@@H]1C
- AC50 [9]: 2.87 µM (active)
- AC50 [10]: 1.64 µM (active)
- AC50 [11]: 1.1 µM (active)
- AC50 [12]: > 100 µM (inactive)
- AC50 [13]: 2.47 µM (active)

Compound: O=S(=O)(c1ccccc1)N1C[C@@H]2N[C@H](C1)[C@H]2c1ccc(-c2ccc(F)cc2)cc1
- AC50 [9]: 1.27 µM (active)
- AC50 [10]: 1.85 µM (active)
- AC50 [11]: 1.47 µM (active)
- AC50 [12]: 14.3 µM (active)
- AC50 [13]: 1.54 µM (active)

Compound: Cc1ccccc1S(=O)(=O)N1CC(=O)N2[C@H](CO)[C@H](c3ccc(C#CCC4CCCC4)cc3)[C@H]2C1
- AC50 [9]: 1.2 µM (active)
- AC50 [10]: 1.42 µM (active)
- AC50 [11]: 0.411 µM (active)
- AC50 [12]: 26.5 µM (active)
- AC50 [13]: 1.9 µM (active)
